In ChEMBL document CHEMBL1201862, “PubChem BioAssay data set” (2004):
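A five-concentration, 48-hour dose response in 96-well plates underlies each endpoint, interpolated linearly between surrounding concentrations. GI50: concentration for 50% inhibition of growth.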 Active and inactive are the calls of the source. Rule as the data show it: active = GI50 up to about 1.1 µM and inactive = higher.

Legend:
Test in all cases: NCI-60 cell line screen, 48 h
OVCAR-3 = tested on: OVCAR-3
TK-10 = tested on: TK-10
IGROV-1 = tested on: IGROV-1
RPMI-8226 = tested on: RPMI-8226
SNB-19 = tested on: SNB-19
CCRF-CEM = tested on: CCRF-CEM
PC-3 = tested on: PC-3
NCI/ADR-RES = tested on: NCI/ADR-RES
HCC 2998 = tested on: HCC 2998
SN12C = tested on: SN12C
MOLT-4 = tested on: MOLT-4
NCI-H460 = tested on: NCI-H460
M14 = tested on: M14
LOX IMVI = tested on: LOX IMVI
Hs-578T = tested on: Hs-578T
NCI-H23 = tested on: NCI-H23
CAKI-1 = tested on: CAKI-1
DU-145 = tested on: DU-145
UO-31 = tested on: UO-31
SK-MEL-5 = tested on: SK-MEL-5

| SMILES | GI50 (OVCAR-3) | GI50 (TK-10) | GI50 (IGROV-1) | GI50 (RPMI-8226) | GI50 (SNB-19) | GI50 (CCRF-CEM) | GI50 (PC-3) | GI50 (NCI/ADR-RES) | GI50 (HCC 2998) | GI50 (SN12C) | GI50 (MOLT-4) | GI50 (NCI-H460) | GI50 (M14) | GI50 (LOX IMVI) | GI50 (Hs-578T) | GI50 (NCI-H23) | GI50 (CAKI-1) | GI50 (DU-145) | GI50 (UO-31) | GI50 (SK-MEL-5) |
| --- | --- | --- | --- | --- | --- | --- | --- | --- | --- | --- | --- | --- | --- | --- | --- | --- | --- | --- | --- | --- |
| CCCCCC(=O)Nc1[nH]nnc1C#N | > 100 µM (inactive) | > 100 µM (inactive) | > 100 µM (inactive) | > 100 µM (inactive) | > 100 µM (inactive) | > 100 µM (inactive) | > 100 µM (inactive) | > 100 µM (inactive) | > 100 µM (inactive) | > 100 µM (inactive) | > 100 µM (inactive) | > 100 µM (inactive) | > 100 µM (inactive) | > 100 µM (inactive) | > 100 µM (inactive) | > 100 µM (inactive) | > 100 µM (inactive) | > 100 µM (inactive) | > 100 µM (inactive) | > 100 µM (inactive) |
| O=C(NO)c1ccc(C(=O)NO)cc1 | 32.4 µM (inactive) | 76 µM (inactive) | > 100 µM (inactive) | 30.1 µM (inactive) | > 100 µM (inactive) | 31.3 µM (inactive) | > 100 µM (inactive) | 3.21 µM (inactive) | 9.86 µM (inactive) | > 100 µM (inactive) | 24.9 µM (inactive) | > 100 µM (inactive) | 97.9 µM (inactive) | > 100 µM (inactive) | > 100 µM (inactive) | > 100 µM (inactive) | > 100 µM (inactive) | 34.5 µM (inactive) | 39.3 µM (inactive) | 81.7 µM (inactive) |
| CCOC(=O)N[C@H]1CCc2cc(OC)c(OC)c(OC)c2-c2ccc(SC)c(=O)cc21 | < 0.01 µM (active) | 1 µM (active) | < 0.01 µM (active) | < 0.01 µM (active) | 0.108 µM (active) | < 0.01 µM (active) | < 0.01 µM (active) | 0.0228 µM (active) | < 0.01 µM (active) | < 0.0287 µM (active) | < 0.01 µM (active) | < 0.01 µM (active) | < 0.01 µM (active) | < 0.01 µM (active) | < 0.01 µM (active) | < 0.01 µM (active) | < 0.01 µM (active) | < 0.01 µM (active) | < 0.0117 µM (active) | < 0.01 µM (active) |
| N=c1oc2c(Cl)cc(Cl)cc2cc1C(=O)Nc1cccc2ccccc12 | 4.61 µM (inactive) | 2.33 µM (inactive) | 5.32 µM (inactive) | 10 µM (inactive) | 19.5 µM (inactive) | 3.57 µM (inactive) | 24.2 µM (inactive) | 4.93 µM (inactive) | 6.93 µM (inactive) | 3.58 µM (inactive) | 7.48 µM (inactive) | 5.01 µM (inactive) | > 44.7 µM (inactive) | 4.7 µM (inactive) | 7.94 µM (inactive) | 16.5 µM (inactive) | 10.6 µM (inactive) | > 89.9 µM (inactive) | 10.2 µM (inactive) | 37.9 µM (inactive) |
| COc1ccc2c(c1)c1nn(CCN(C)C)c3ccc4c(=O)n(CCN(C)C)c(=O)n2c4c13 | 0.018 µM (active) | 0.0649 µM (active) | < 0.01 µM (active) | < 0.01 µM (active) | 0.0224 µM (active) | < 0.01 µM (active) | 0.0103 µM (active) | 0.0148 µM (active) | < 0.01 µM (active) | < 0.0234 µM (active) | < 0.01 µM (active) | < 0.01 µM (active) | 0.105 µM (active) | 0.0171 µM (active) | 0.0463 µM (active) | < 0.0241 µM (active) | 0.0682 µM (active) | 0.0135 µM (active) | 0.0255 µM (active) | 0.198 µM (active) |
| CC(=O)Nc1ccc(S(=O)(=O)[N-]C2C(=O)c3ccccc3C(=O)C2[n+]2ccccc2)cc1 (stereo not given) | 16.4 µM (inactive) | > 100 µM (inactive) | 15 µM (inactive) | 17.5 µM (inactive) | 14.3 µM (inactive) | 15.1 µM (inactive) | 17.1 µM (inactive) | 17.1 µM (inactive) | 19.1 µM (inactive) | 99.3 µM (inactive) | 17.6 µM (inactive) | 29.3 µM (inactive) | 14.1 µM (inactive) | 63.4 µM (inactive) | 23.1 µM (inactive) | 7.64 µM (inactive) | > 100 µM (inactive) | > 100 µM (inactive) | 9.06 µM (inactive) | 3.87 µM (inactive) |
| COC(=O)NC(Cc1ccccc1)NC(C)=O (stereo not given) | > 100 µM (inactive) | > 100 µM (inactive) | > 100 µM (inactive) | > 100 µM (inactive) | > 100 µM (inactive) | > 100 µM (inactive) | > 100 µM (inactive) | > 100 µM (inactive) | > 100 µM (inactive) | > 100 µM (inactive) | > 100 µM (inactive) | > 100 µM (inactive) | > 100 µM (inactive) | > 100 µM (inactive) | 5.3 µM (inactive) | > 100 µM (inactive) | > 100 µM (inactive) | > 100 µM (inactive) | > 100 µM (inactive) | > 100 µM (inactive) |
